The nature of data set [1]: in vivo. To be noted: NSG, mouse, po.
Description: Maximum tolerated dose (MTD)
experiment) or 5, 10, 25 or 50 mg/kg of 5-FU daily during 5 consecutive days. After 3 treatment cycles,
animals rested (no treatment) for one more week before euthanasia. Body weight and physical status
of all mice were closely monitored. Tissues were collected and fixed in alcoholic formalin to test for
daily during 5 consecutive days for 3 weeks. After 3 treatment cycles, animals rested (no treatment) for
one more week before euthanasia. Body weight and physical status of all mice were closely monitored.
Tissues were collected and fixed in alcoholic formalin to test for toxicity.
Specimens were fixed in alcoholic formalin for 48h and then transferred to 70% ethanol, processed and
embedded in paraffin. Tissues were serially sectioned and stained by conventional H&E. Slides were
In data set [2] the test system is MIA PaCa-2 cells. Nature of the data set: MTS viability assay, MIA PaCa-2. It is filed as cell-based. To be noted: Homo sapiens, 72-hour drug treatment, Figure 6E, highest concentration 350 μM. The method, then:
Cells were harvested after 72 hours, and cell pellets were stored at –80°C. […] After 72 hours, cell viability was assessed by reduction of MTS using Cell Titer 96 R Aqueous One Solution Cell Proliferation Assay Kit (Promega, catalog G8081), following manufacturer’s recommendations. […] was measured on a SpectraMax M3 (Molecular Devices). Data were plotted in GraphPad Prism 9 to determine GI50 concentration. Chemical synthesis details, including characterization of each compound, can be found in the Supplemental section associated with this publication.
(Tetrazolium assays rely on reduction of a dye to a coloured formazan, in cell work by metabolically active cells.)

Data set [3] has as its target T1, DHFR (Homo sapiens, UniProt P00374).
T1 construct: purchased Sigma D6566 (kit CS0340)
T1 sequence (P00374 1-187): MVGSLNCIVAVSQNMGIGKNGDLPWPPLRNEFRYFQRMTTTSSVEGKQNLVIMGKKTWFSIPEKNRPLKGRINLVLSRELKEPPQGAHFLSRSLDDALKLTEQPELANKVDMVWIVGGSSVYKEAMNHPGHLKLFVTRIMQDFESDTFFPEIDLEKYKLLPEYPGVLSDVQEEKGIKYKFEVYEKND
Description: Absorbance-based DHFR activity assay. It is filed as biochemical. To be noted: Figure 6D.
Description: DHFR assay kit (Sigma Aldrich, Cat # CS0340) as described by the manufacturer. 0.1-unit DHFR
analogues or control drugs, 6 μL NADPH Cat # N6505 solution and 5 μl of dihydrofolic acid (DHFR
substrate) (Sigma, Cat # D7006). The reaction was then read on the spectrophotometer at 340 nm at
22 °C every 15 seconds for 2.5 minutes.

Data set [4] has as its system Luc-PANC-1 xenograft tumors. Description: Luc-PANC-1 subcutaneous xenograft tumor model. It is filed as in vivo. To be noted: 25 mg/kg PO, 4 cycles, Figure 9. From the text: In the subcutaneous tumor model, the resulting Luc-PANC-1 xenograft tumors were monitored by direct tumor measurements and bioluminescence photon flux that is proportional to tumor size. […] Treatment was initiated 30 days after Luc-PANC-1 cell line subcutaneous injections (5 × 10^6 cells), when tumors reached 100 mm^3 in volume, generating a bioluminescence photon flux of 3 × 10^9 to 4 × 10^9 photons/s. […] Tumors from both treatment groups were excised, and the tumor mass was weighed (Figure 2E).
Luc-PANC-1 (5 × 10^6) and Luc-CM (0.5 × 10^6) cells were resuspended in 200 μL of PBS and injected subcutaneously or IP, respectively, into 6- to 8-week-old NSG mice. Tumor-bearing mice were imaged using Xenogen IVIS Lumina Bioluminescence Imaging System (PerkinElmer) every week after cell injection. […] For all animals, body weight was recorded weekly, and Luc-PANC-1 tumor volume was measured weekly with a caliper. For scheduled sacrifice experiments, animals were euthanized after 4 weeks of treatment. […] Tumor volume was calculated as volume = 0.52(length × width^2).
Prior to bioluminescence imaging the region where tumors were located was shaved. […] Following the injection of the D-luciferin substrate mice, were imaged using the Xenogen IVIS Lumina Bioluminescence Imaging System (PerkinElmer). The peak of luciferase photon flux was recorded 6 minutes after injection of the D-luciferin substrate. The total photon flux was analyzed and restricted to tumor region of interest using Living Image v2.60.1 software (Imaging Systems).

Molecules are shown by their SMILES.

In general, GI50 refers to the concentration at which growth is held to half of that of the control. The low end stands for greater sensitivity of the cells, the high end for lower sensitivity of the cells.

For the molecule `CCc1nc(N)nc(N)c1-c1ccc(N(C)Cc2ccc3c(c2)OCO3)c([N+](=O)[O-])c1` [Compound 19-S7], the MTD at 3 weeks in data set [1] is 25 mg/kg. This molecule registered a 50% growth inhibitory concentration (GI50) in data set [2] of 200 nM. Moreover, the “DHFR activity, comparison at reduced drug concentrations” value in data set [3] is “potent TYMS and DHFR inhibition”. In data set [4], the Bioluminescence photon flux result is recorded as “reduced bioluminescence photon flux”; the Body weight entry is “did not show adverse effects on or declines in body weight”; the “Final excised tumor mass” value is recorded as “reduced mass of the final excised tumors”; the Tumor volume entry is “reduced and stable tumor volumes”.

The values above are taken from paper PMC10386886, “First-in-class multifunctional TYMS nonclassical antifolate inhibitor with potent in vivo activity that prolongs survival” (JCI Insight, 2023).
